From US20030228621A1, “Common ligand universal enzyme assay and compositions for use therein” (priority 2002, published 2003)

Experiments:
[1] = Stability of dehydrogenases and FITC-NADH by fluorescence polarization over time; format: physicochemical; details: 1.5 nM FITC-NADH with EACPR, GAPDH or DHPR
Method: The fluorescence polarization of solutions of 10 μM enoyl ACP reductase, 5.6 μM glyceraldehyde-3-phosphate dehydrogenase and 10 μM dihydrodipicolinate reductase with 1.5 nM FITC-NADH, was measured. The concentration of the dehydrogenase was such that the solution of dehydrogenase and FITC-NADH would give the polarization mP value of 70-80. The blank was a solution of protein in buffer. Fluorescence polarization measurements were taken for 2 hours at 5 minute intervals.

[2] = target: dihydrodipicolinate reductase (DHPR) (Escherichia coli, UniProt P04036); experiment: Fluorescence polarization binding of FITC-NADH titrated with dihydrodipicolinate reductase (FIG. 4); details: 25 nM FITC-NADH, 20 mM Potassium Phosphate, pH 7.4, or 20 mM HEPES, pH 7.8, fit of mP vs Log(DHPR)
Sequence of dihydrodipicolinate reductase (DHPR) (P04036 whole entry): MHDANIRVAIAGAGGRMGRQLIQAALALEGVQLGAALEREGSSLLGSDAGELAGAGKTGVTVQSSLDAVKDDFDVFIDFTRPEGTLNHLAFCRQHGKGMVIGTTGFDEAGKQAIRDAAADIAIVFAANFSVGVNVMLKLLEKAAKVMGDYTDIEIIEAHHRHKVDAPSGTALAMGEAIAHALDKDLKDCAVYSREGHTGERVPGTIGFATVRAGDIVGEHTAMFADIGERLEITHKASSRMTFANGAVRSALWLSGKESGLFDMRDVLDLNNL
Method: This example illustrates the determination of the concentration of FITC-NADH that would provide the best signal to noise ratio for fluorescence polarization assay. FITC-NADH was dissolved in 10 mM TAPS buffer with 5% NaHCO3, pH=8. The final concentration of FITC-NADH was 150 μM. In later experiments 150 μM FITC-NADH was diluted to the desired concentration in 20 mM Potassium Phosphate buffer, pH=7.4. Fluorescence polarization was monitored using a Beacon 2000 Variable Temperature Fluorescence Polarization System (PanVera Corporation, Madison, Wis.) and an LJL Analyst HT 96-384 (Molecular Devices Corporation, Sunnyvale, Calif.). The concentration of FITC-NADH as fluorescent tracer was selected by measuring fluorescence polarization of varying concentrations of FITC-NADH in 10 mM Potassium Phosphate buffer, pH=7.4. The concentration range was 0.15 nM—15 nM. For the best signal to noise ratio regarding both the horizontal and vertical intensities that contribute to the fluorescence polarization value, a concentration of 25 nM was chosen for FITC-NADH in the majority of experiments.
This example illustrates the binding characteristics of FITC-NADH to various dehydrogenases. […] An individual blank of protein in buffer was measured for each point. […] FITC-NADH was added to the test tubes and the fluorescence polarization measurement was taken. […]

NC(=O)C1=CN(C2OC(COP(=O)(O)OP(=O)(O)OCC3OC(n4cnc5c(NCCNC(=S)Nc6ccc(-c7c8ccc(=O)cc-8oc8cc(O)ccc78)c(C(=O)O)c6)ncnc54)C(O)C3O)C(O)C2O)C=CC1 (centres unmarked) [FITC-NADH, fluorescein isothiocyano-N^6-(2-aminoethyl)-NADH]
time stable in fluorescence polarization assay [1]: 100 min
Kd [2]: 1400 ± 100 nM
